Data reported in patent EP0129667A1, “Compounds and pharmaceutical compositions for treatment of hypoovarianism” (Takeda Chemical Industries, Ltd., priority 1983, dated 1985).

Assays:
[1] = test system: young oophorectomized rats; test: E activity-potentiating effect in young oophorectomized rats (uterine wet weight); assay type: in vivo, Spraque-Dawley rats; details: 3 days; for increase of uterine weight by the compound alone: without estrone; for Uterine wet weight (mg ± S.D.): autopsy on 4th day
Experimental: Spraque-Dawley rats, 33 days of age and 11 days after oophorectomy for elimination of endogenous E activity, were assigned to groups of 5 to 7 individuals and treated subcutaneously with solutions of esterone in sesame oil or orally with suspensions of Compound A in 1% hydroxypropylcellulose solution, either independently or in combination, for 3 days. On the 4th day, each animal was autopsied and its uterine wet weight was recorded. […] Spraque-Dawley rats, 33 days of age and 11 days after oophorectomy for elimination of endogenous E activity, were assigned to groups of 5 to 7 individuals and treated subcutaneously with solutions of esterone in sesame oil or orally with suspensions of Compound B in 1% hydroxypropylcellulose solution, either independently or in combination, for 3 days. On the 4th day, each animal was autopsied and its uterine wet weight was recorded.

[2] = test system: ICR mice; test: Acute toxicity in mice; assay type: in vivo; details: 5-week-old ICR mice, 14 days observation, LD50 could not be calculated
Experimental: (§1) Five-week-old ICR mice and 5-week-old Spraque-Dawley rats were used in groups of 10 males and 10 females, and suspensions of compound A or B in olive oil were administered orally [2,500, 5,000 and 10,000 mg/kg of each compound] or subcutaneously (1,250, 2,500 and 5,000 mg/kg). The animals were kept under observation for 14 days.

[3] = test system: Spraque-Dawley rats; test: Acute toxicity in rats; assay type: in vivo; details: 5-week-old Spraque-Dawley rats, 14 days observation, LD50 could not be calculated
Experimental: as §1

[4] = oral 2,500, 5,000 and 10,000 mg/kg in olive oil
[5] = subcutaneous 1,250, 2,500 and 5,000 mg/kg in olive oil

O=c1c(-c2ccccc2)coc2cc(O)ccc12 [Compound A, 7-hydroxy-isoflavone]
potentiation of the uterine weight increasing action of estrone ([1]; Compound A at 50 and 100 mg/kg oral with estrone subcutaneous): potentiated the uterine weight increasing action of estrone
increase of uterine weight by the compound alone ([1]; Compound A at 50 and 100 mg/kg oral): did not cause an increase of uterine weight
Uterine wet weight (mg ± S.D.) ([1]; Table 1, Compound A 50 mg/kg daily oral, estrone 0): 35.3 ± 1.7 mg
Uterine wet weight (mg ± S.D.) ([1]; Table 1, Compound A 100 mg/kg daily oral, estrone 0): 35.9 ± 1.0 mg
Uterine wet weight (mg ± S.D.) ([1]; Table 1, estrone 1.0 µg/kg daily subcutaneous + Compound A 50 mg/kg daily oral): 60.8 ± 4.1 mg
Uterine wet weight (mg ± S.D.) ([1]; Table 1, estrone 1.0 µg/kg daily subcutaneous + Compound A 100 mg/kg daily oral): 70.6 ± 2.7 mg

CC(C)Oc1ccc2c(=O)c(-c3ccccc3)coc2c1 [Compound B, 7-isopropyloxy-isoflavone]
deaths and toxic symptoms (acute toxicity) [2, 4]: None of the groups showed deaths nor toxic symptoms
deaths and toxic symptoms (acute toxicity) [2, 5]: None of the groups showed deaths nor toxic symptoms
deaths and toxic symptoms (acute toxicity) [3, 4]: None of the groups showed deaths nor toxic symptoms
deaths and toxic symptoms (acute toxicity) [3, 5]: None of the groups showed deaths nor toxic symptoms
potentiation of the uterine weight increasing action of estrone ([1]; Compound B at 50 and 200 mg/kg oral with estrone subcutaneous): potentiated the uterine weight increasing action of estrone
increase of uterine weight by the compound alone ([1]; Compound B at 50 and 200 mg/kg oral): did not cause an increase of uterine weight
Uterine wet weight (mg ± S.D.) ([1]; Table 2, Compound B 50 mg/kg daily oral, estrone 0): 32.2 ± 1.3 mg
Uterine wet weight (mg ± S.D.) ([1]; Table 2, Compound B 200 mg/kg daily oral, estrone 0): 34.7 ± 1.2 mg
Uterine wet weight (mg ± S.D.) ([1]; Table 2, estrone 0.5 µg/kg daily subcutaneous + Compound B 50 mg/kg daily oral): 39.6 ± 2.4 mg
Uterine wet weight (mg ± S.D.) ([1]; Table 2, estrone 0.5 µg/kg daily subcutaneous + Compound B 200 mg/kg daily oral): 51.3 ± 5.3 mg
Uterine wet weight (mg ± S.D.) ([1]; Table 2, estrone 1.0 µg/kg daily subcutaneous + Compound B 50 mg/kg daily oral): 58.2 ± 2.6 mg
Uterine wet weight (mg ± S.D.) ([1]; Table 2, estrone 1.0 µg/kg daily subcutaneous + Compound B 200 mg/kg daily oral): 71.5 ± 7.4^+ mg

C[C@]12CC[C@@H]3c4ccc(O)cc4CC[C@H]3[C@@H]1CCC2=O [estrone, reference compound]
Uterine wet weight (mg ± S.D.) ([1]; Table 1, estrone 1.0 µg/kg daily subcutaneous alone (Compound A 0)): 52.6 ± 2.3 mg
Uterine wet weight (mg ± S.D.) ([1]; Table 2, estrone 0.5 µg/kg daily subcutaneous alone (Compound B 0)): 36.3 ± 1.9 mg
Uterine wet weight (mg ± S.D.) ([1]; Table 2, estrone 1.0 µg/kg daily subcutaneous alone (Compound B 0)): 51.9 ± 4.2 mg
